Key:
Assay in all cases: greenhouse post-emergence treatment, herbicidal activity
AMBEL = type: in vivo, Ambrosia artemisiifolia
Method: (§1) The culture containers used were plastic pots containing loamy sand with approximately 2-3.0% of organic matter. The seeds of the test plants were sown separately for each species.
(§2) For the post-emergence treatment, the test plants were grown to a plant height of from 3 to 15 cm, depending on the plant habit, and only then treated with the active compounds which had been suspended or emulsified in water. To this end, the test plants were either sown directly, and grown in the same containers, or they were first grown separately as seedlings and transplanted into the test containers a few days prior to treatment.
(§3) Depending on the species, the plants were kept at 10-25° C. and 20-35° C., respectively. The test period extended over 2 to 4 weeks. During this time, the plants were tended and their response to the individual treatments was evaluated.
(§4) Evaluation was carried out using a scale from 0 to 100. 100 means no emergence of the plants, or complete destruction of at least the above-ground parts, and 0 means no damage or normal course of growth. A good herbicidal activity is given at values of at least 70, and very good herbicidal activity is given at values of at least 85.
(§5) In the examples below, using the method of S. R. Colby (1967) “Calculating synergistic and antagonistic responses of herbicide combinations”, Weeds 15, p. 22ff., the value E, which is expected if the activity of the individual active compounds is only additive, was calculated.
(§6) where X=percent activity using active compound A at an application rate a; Y=percent activity using active compound B at an application rate b; E=expected activity (in %) by A+B at application rates a+b.
(§7) where X=percent activity using active compound A at an application rate a; Y=percent activity using active compound B at an application rate b; Z=percent activity using active compound D at an application rate d; E=expected activity (in %) by A+B+D at application rates a+b+d.
(§8) If the value found experimentally is higher than the value E calculated according to Colby, a synergistic effect is present.
(§9) For preparation of the mixtures herbicides A were used in form of an aqueous solution comprising 22.5% by weight of the respective herbicide A. The herbicides B and D were used in form of the respective commercially available formulations as identified below. 1,5-dimethyl-6-thioxo-3-(2,2,7-trifluoro-3-oxo-4-(prop-2-ynyl)-3,4-dihydro-2H-benzo[b][1,4]oxazin-6-yl)-1,3,5-triazinane-2,4-dione (B.14) was used in form of 10% by weight suspension concentrate. If appropriate, the adjuvant DASH® HC was added to the mixtures.

PANDI = type: in vivo, Panicum dichotomiflorun
Method: as §1, §2, §3, §4, §5, §6, §7, §8, §9

ERBVI = type: in vivo, Eriochloa villosa; settings: Example 4 (title: +1% by weight DASH® HC)
Method: as §1, §2, §3
(§10) Evaluation was carried out using a scale from 0 to 100. […]
(§11) In the examples below, using the method of S. R. Colby (1967) “Calculating synergistic and antagonistic responses of herbicide combinations”, Weeds 15, p. 22ff., the value E, which is expected if the activity of the individual active compounds is only additive, was calculated. […]
(§12) If the value found experimentally is higher than the value E calculated according to Colby, a synergistic effect is present. […]

POLPE = type: in vivo, Polygonum persicaria
Method: as §1, §2, §3, §4, §5, §6, §7, §8, §9

ECHCG = type: in vivo, Echinochloa crus-galli
Method: as §1, §2, §3, §4, §5, §6, §7, §12

HELAN = type: in vivo, Helianthus annuus
Method: as §1, §2, §3, §4, §5, §6, §7, §8, §9

CHEAL = type: in vivo, Chenopodium album
Method: as §1, §2, §3, §4, §5, §6, §7, §12

COMBE = type: in vivo, Commelina benghalensis
Method: as §1, §2, §3, §10, §11, §12

DIGSA = type: in vivo, Digitaria sanguinales
Method: as §1, §2, §3, §4, §5, §6, §7, §8, §9

ABUTH = type: in vivo, Abutilon theophrasti
Method: as §1, §2, §3, §4, §5, §6, §7, §12

BRADC = type: in vivo, Brachiaria decumbens
Method: as §1, §2, §3, §10, §11, §12

ERICA = type: in vivo, Erigeron canadensis
Method: as §1, §2, §3, §4, §5, §6, §7, §8, §9

PHBPU = type: in vivo, Pharbitis purpurea
Method: as §1, §2, §3, §4, §5, §6, §7, §8, §9

CYPES = type: in vivo, Cyperus esculentus; settings: Example 6 (title: +1% by weight DASH® HC)
Method: as §1, §2, §3, §10, §11, §12

BRAPP = type: in vivo, Urochloa platyphylla; settings: Example 10, 31.25 g/ha a.i.
Method: as §1, §2, §3, §10, §11, §12

PHACA = type: in vivo, Phalaris canariensis L.; settings: Example 10, 31.25 g/ha a.i.
Method: as §1, §2, §3, §10, §11, §12

[1] = Example 5 (title: +1% by weight DASH® HC), post-emergence, B.28 31.25 g/ha a.i.
[2] = Example 5 (title: +1% by weight DASH® HC); post-emergence; a1) 31.25 g/ha a.i.

Compound: CCOC(=O)C(Cl)Cc1cc(-n2nc(C)n(C(F)F)c2=O)c(F)cc1Cl (stereo not shown) [B.7, carfentrazone-ethyl]
- herbicidal activity against AMBEL found (AMBEL; Example 11, post-emergence, 15 g/ha a.i.): 75%
- herbicidal activity against AMBEL found (AMBEL; Example 12, post-emergence, B.7 68 g/ha a.i.): 70%

Compound: CC(C)N(C)S(=O)(=O)NC(=O)c1cc(-n2c(=O)cc(C(F)(F)F)n(C)c2=O)c(F)cc1Cl [B.12, saflufenacil]
- herbicidal activity against PANDI found (PANDI; Example 4 (title: +1% by weight DASH® HC), post-emergence, 6.25 g/ha a.i.): 95%
- herbicidal activity against ERBVI found (ERBVI; 6.25 g/ha a.i.): 80%

Compound: Cc1c(C(=O)c2cnn(C)c2O)ccc(S(C)(=O)=O)c1C1=NOCC1 [B.25, topramezone]
- herbicidal activity against POLPE found (POLPE; Example 2, 12.5 g/ha a.i.): 75%
- herbicidal activity against ECHCG found (ECHCG; Example 9, 12.5 g/ha a.i.): 40%
- herbicidal activity against HELAN found (HELAN; Example 2, 12.5 g/ha a.i.): 80%
- herbicidal activity against CHEAL found (CHEAL; Example 9, 12.5 g/ha a.i.): 25%
- herbicidal activity against COMBE found (COMBE; Example 2, 12.5 g/ha a.i.): 60%
- herbicidal activity against DIGSA found (DIGSA; Example 2, 12.5 g/ha a.i.): 65%
- herbicidal activity against DIGSA found (DIGSA; Example 9, 12.5 g/ha a.i.): 70%
- herbicidal activity against ABUTH found (ABUTH; Example 9, 25 g/ha a.i.): 90%

Compound: O=C(O)CNCP(=O)(O)O [B.26, glyphosate]
- herbicidal activity against POLPE found (POLPE; Example 1, 135 g/ha a.i.): 60%
- herbicidal activity against AMBEL found (AMBEL; Example 12, post-emergence, B.26 15 g/ha a.i.): 75%
- herbicidal activity against BRADC found (BRADC; Example 1, 135 g/ha a.i.): 80%

Compound: CP(=O)(O)CCC(N)C(=O)O (stereo not shown) [B.27, glufosinate]
- herbicidal activity against ERICA found (ERICA; Example 8 (title: +1% by weight DASH® HC), 100 g/ha a.i.): 65%

Compound: Cc1ccc2c(c1)[C@H](Nc1nc(N)nc(C(C)F)n1)[C@@H](C)C2 (stereo partly shown) [B.28, indaziflam]
- herbicidal activity against ERICA found (ERICA; Example 7 (title: +1% by weight DASH® HC), 75 g/ha a.i.): 75%
- herbicidal activity against PANDI found (PANDI; [1]): 80%
- herbicidal activity against PANDI found (PANDI; Example 6 (title: +1% by weight DASH® HC), post-emergence, 6.25 g/ha a.i.): 60%
- herbicidal activity against PHBPU found (PHBPU; [1]): 98%
- herbicidal activity against PHBPU found (PHBPU; Example 7 (title: +1% by weight DASH® HC), post-emergence, 75 g/ha a.i.): 65%
- herbicidal activity against CYPES found (CYPES; 6.25 g/ha a.i.): 55%

Compound: COc1c(Cl)ccc(Cl)c1C(=O)O [B.32, dicamba]
- herbicidal activity against ERICA found (ERICA; Example 3, 60 g/ha a.i.): 95%
- herbicidal activity against HELAN found (HELAN; Example 3, 60 g/ha a.i.): 80%
- herbicidal activity against AMBEL found (AMBEL; Example 3, post-emergence, 60 g/ha a.i.): 85%

Compound: CCNc1nc(Cl)nc(NC(C)C)n1 [D.3, atrazine]
- herbicidal activity against ECHCG found (ECHCG; Example 9, 150 g/ha a.i.): 0%
- herbicidal activity against CHEAL found (CHEAL; Example 9, 150 g/ha a.i.): 35%
- herbicidal activity against DIGSA found (DIGSA; Example 9, 150 g/ha a.i.): 0%
- herbicidal activity against ABUTH found (ABUTH; Example 9, 150 g/ha a.i.): 60%

Compound: C/C=C1/CC2=C(C(=O)OC2=O)[C@H](CCC)[C@H](O)C(=O)C[C@@H]1O [a1), cornexistin]
- herbicidal activity against ERICA found (ERICA; Example 3, 125 g/ha a.i.): 40%
- herbicidal activity against ERICA found (ERICA; Example 7 (title: +1% by weight DASH® HC), 31.25 g/ha a.i.): 40%
- herbicidal activity against ERICA found (ERICA; Example 8 (title: +1% by weight DASH® HC), 31.25 g/ha a.i.): 20%
- herbicidal activity against POLPE found (POLPE; Example 1, 125 g/ha a.i.): 60%
- herbicidal activity against POLPE found (POLPE; Example 2, 125 g/ha a.i.): 60%
- herbicidal activity against BRAPP found (BRAPP): 25%
- herbicidal activity against ECHCG found (ECHCG; Example 9, 31.25 g/ha a.i.): 30%
- herbicidal activity against PHACA found (PHACA): 25%
- herbicidal activity against HELAN found (HELAN; Example 2, 125 g/ha a.i.): 20%
- herbicidal activity against HELAN found (HELAN; Example 3, 125 g/ha a.i.): 20%
- herbicidal activity against AMBEL found (AMBEL; Example 3, post-emergence, 125 g/ha a.i.): 65%
- herbicidal activity against AMBEL found (AMBEL; Example 11, post-emergence, 62.5 g/ha a.i.): 90%
- herbicidal activity against AMBEL found (AMBEL; Example 12; post-emergence; a1) 15 g/ha a.i.): 35%
- herbicidal activity against PANDI found (PANDI; Example 4 (title: +1% by weight DASH® HC), post-emergence, 62.5 g/ha a.i.): 95%
- herbicidal activity against PANDI found (PANDI; [2]): 90%
- herbicidal activity against PANDI found (PANDI; Example 6 (title: +1% by weight DASH® HC), post-emergence, 62.5 g/ha a.i.): 95%
- herbicidal activity against PHBPU found (PHBPU; [2]): 70%
- herbicidal activity against PHBPU found (PHBPU; Example 7 (title: +1% by weight DASH® HC), post-emergence, 31.25 g/ha a.i.): 70%
- herbicidal activity against CHEAL found (CHEAL; Example 9, 31.25 g/ha a.i.): 0%
- herbicidal activity against COMBE found (COMBE; Example 2, 125 g/ha a.i.): 60%
- herbicidal activity against ERBVI found (ERBVI; 62.5 g/ha a.i.): 90%
- herbicidal activity against BRADC found (BRADC; Example 1, 125 g/ha a.i.): 50%
- herbicidal activity against CYPES found (CYPES; 62.5 g/ha a.i.): 0%
- herbicidal activity against DIGSA found (DIGSA; Example 2, 125 g/ha a.i.): 90%
- herbicidal activity against DIGSA found (DIGSA; Example 9, 31.25 g/ha a.i.): 25%
- herbicidal activity against ABUTH found (ABUTH; Example 9, 31.25 g/ha a.i.): 60%

Reference: patent US20150342193A1, “Herbicidal Composition” (priority 2012, published 2015)
